Literature values in patent publication US7741050B2, “Identification of agonistic autoantibodies” (Max-Delbrueck-Centrum fuer Molkulare Medizin, priority 2002, dated 2010).

Biological target: T1, AT1 receptor of cultivated cardiomyocytes (Rattus norvegicus, UniProt P25095)
T1 construct: can stimulate the AT1 receptor of cultivated cardiomyocytes; endogenous in cells; host or cells: primary cultivated cardiomyocytes of newborn rats
T1 sequence (P25095 1-359): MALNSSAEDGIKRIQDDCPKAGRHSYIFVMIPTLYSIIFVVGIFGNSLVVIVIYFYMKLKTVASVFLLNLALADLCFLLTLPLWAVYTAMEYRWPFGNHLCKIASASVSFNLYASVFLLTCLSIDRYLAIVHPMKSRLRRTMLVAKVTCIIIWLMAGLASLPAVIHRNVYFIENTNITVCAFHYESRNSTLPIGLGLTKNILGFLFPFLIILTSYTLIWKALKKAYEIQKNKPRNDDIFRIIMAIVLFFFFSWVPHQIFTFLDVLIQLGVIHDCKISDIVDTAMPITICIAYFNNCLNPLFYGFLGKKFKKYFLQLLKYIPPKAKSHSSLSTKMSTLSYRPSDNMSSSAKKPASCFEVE
Settings: Losartan 1 μM added to cardiomyocytes stimulated by antibodies of preeclamptic women; cited from earlier work

## CCCCc1nc(Cl)c(CO)n1Cc1ccc(-c2ccccc2-c2nn[nH]n2)cc1 [Losartan]
  beats per minute: reduced
